Patent US7015228B2, “4-amino-2-(2-pyridyl)pyrimidines as microbicidal active substances” (Ciba Specialty Chemicals Corporation, priority 2001, dated 2006)
≈ marks a conversion by molar mass, not a printed value.

Experiments:
[1] = system: S. aureus ATCC 6538; assay: Determination of the bactericidal activity (logarithmic reduction in organism count); format: cell-based, Staphylococcus aureus; conditions: contact for 30 minutes at a substance concentration of 120 μg/mL
Experimental: (§1) Determination of the Bactericidal Activity of Selected Compounds
(§2) Casein-soybean flour-peptone broth for preparation of pre-cultures of test bacteria
(§3) Examples of Test Organisms:
(§4) • Staphylococcus aureus ATCC 6538 • Escherichia coli ATCC 10536 • Salmonella choleraesuis ATCC 10708 Procedure:
(§5) The test substances are dissolved in dimethyl sulfoxide (DMSO) and tested in a concentration of 120 μg/ml.
(§6) Bacteria are incubated overnight in CASO broth and adjusted to an organism count of 1–5×10^5 CFU/ml using 0.85% sodium chloride solution.
(§7) The test substances are pre-pipetted into microtitre plates in amounts of 8 μl per well.
(§8) The adjusted test organism suspensions are added in amounts of 192 μl per well to the test substances and mixed. After defined contact times, the test batches are mixed, an aliquot is withdrawn and diluted in several steps in a dilution series of 1:10 in a suitable inactivation medium.
The test plates are incubated for 24 hours at 37° C.
(§9) After incubation, the growth is determined on the basis of the turbidity of the test batches (optical density) at 620 nm in a microplate reader.
(§10) One microtitre plate is used for each test organism.
(§11) All the substances are tested in duplicate.

[2] = system: E. coli NCTC 8196; assay: as above; format: cell-based, Escherichia coli; conditions: contact for 30 minutes at a substance concentration of 120 μg/mL
[3] = system: S. choleraesuis ATCC 10708; assay: as above; format: cell-based, Salmonella choleraesuis; conditions: contact for 30 minutes at a substance concentration of 120 μg/mL
Experimental: as §1, §2, §3, §4, §5, §6, §7, §8
The test plates are incubated for 24 hours at 37° C. […]
as §10, §11

[4] = system: Epidermophyton floccosum DSM 10709; assay: Minimum inhibitory concentration (MIC), further microorganisms; format: cell-based; conditions: Table 8; * = significant inhibition of growth, but not complete inhibition
Experimental: (§12) Determination of the Minimum Inhibitory Concentration (MIC Value) in Microtitre Plates
(§13) Casein-soybean flour-peptone broth for preparation of pre-cultures of test bacteria and yeast.
(§14) Mycological slant agar for the pre-culture of moulds
(§15) The test substances are pre-dissolved in dimethyl sulfoxide (DMSO) and tested in a dilution series of 1:2.
(§16) Bacteria and yeast are cultured overnight in CASO broth, the mould is cultured overnight on mycological slant agar, and washed off using 10 ml of 0.85% sodium chloride solution (+0.1% Triton X-100).
(§17) All the test organisms are adjusted to an organism count of 1–5×10^6 CFU/ml using 0.85% sodium chloride solution.
as §7
(§18) Pre-diluted organism suspensions are diluted 1:100 in CASO broth (bacteria and yeast) or Sabouraud 2% glucose broth (mould) and are added in amounts of 192 μl per well to the test substances.
(§19) The test batches are incubated for 48 hours at 37° C. (bacteria and yeast) or for 5 days at 28° C. (mould).
as §9
(§20) The minimum inhibitory concentration (MIC value) is the concentration of substance at which there is found (compared to the growth of the control) an appreciable inhibition of growth (≦20% growth) of the test organisms.
(§21) One microtitre plate is used for each test organism and substance concentration. All the substances are tested in duplicate.

[5] = system: S. epidermidis ATCC 12228; assay: as above; format: cell-based; conditions: Table 8; * = significant inhibition of growth, but not complete inhibition
Experimental: as §12, §13, §14, §15, §16, §17, §7, §18, §19, §9, §20, §21

[6] = system: Staphylococcus aureus ATCC 9144; assay: as above; format: cell-based; conditions: Table 8; * = significant inhibition of growth, but not complete inhibition
Experimental: as §12, §13, §14, §15, §16, §17, §7, §18, §19, §9, §20, §21

[7] = system: Trichophyton mentagrophytes ATCC 9533; assay: as above; format: cell-based; conditions: Table 8; * = significant inhibition of growth, but not complete inhibition
Experimental: as §12, §13, §14, §15, §16, §17, §7, §18, §19, §9, §20, §21

[8] = system: Micrococcus luteus ATCC 9341; assay: as above; format: cell-based; conditions: Table 8; * = significant inhibition of growth, but not complete inhibition
Experimental: as §12, §13, §14, §15, §16, §17, §7, §18, §19, §9, §20, §21

[9] = system: Enterococcus hirae ATCC 10541; assay: as above; format: cell-based; conditions: Table 8; * = significant inhibition of growth, but not complete inhibition
Experimental: as §12, §13, §14, §15, §16, §17, §7, §18, §19, §9, §20, §21

[10] = system: Escherichia coli NCTC 8196; assay: Minimum inhibitory concentration (MIC) in microtitre plates; format: cell-based
In short: (§22)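 Compounds in DMSO, 1:2 dilution series; bacteria at 1–5×10^6 CFU/ml diluted 1:100 in CASO broth. Incubation 48 h at 37° C, growth read as OD 620 nm. MIC is the lowest concentration giving ≤20% growth relative to control; duplicates.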

[11] = system: Staphylococcus hominis DMS 20328; assay: as above; format: cell-based; conditions: Table 7; 48 hours at 37° C.; MIC = ≦20% growth compared to control
In short: as §22

SMILES	Logarithmic reduction in organism count, S. aureus ATCC 6538 [1]	Logarithmic reduction in organism count, E. coli NCTC 8196 [2]	Logarithmic reduction in organism count, S. choleraesuis ATCC 10708 [3]	further results
CCCCCCCCCCNc1nc(-c2ccccn2)nc(C)c1CC [Compound of formula 11]	1–2 log	≦1 log	<1 log	
CCCCCCCCCCNc1cc(C(C)C)nc(-c2ccccn2)n1 [Compound of formula 47]	1 log	<1 log	<1 log	
CCCCCCCCCCCCCCCNc1cc(C)nc(-c2ccccn2)n1 [Compound of formula 93]	2 log	≦1 log	<1 log	
CCCCCCCNc1nc(-c2ccccn2)nc(C)c1C(C)C [Compound of formula 68]	≦1 log	<1 log	<1 log	
CCCCCCCCCNc1cc(C(C)C)nc(-c2ccccn2)n1 [Compound of formula 46]	≦1 log	<1 log	<1 log	
Cc1cc(NCCCCCCCCCN)nc(-c2ccccn2)n1 [Compound of formula 18]	1 log	<1 log	<1 log	
CCCCCCCCCNc1cc(C(F)(F)F)nc(-c2ccccn2)n1 [Compound of formula 34]	<1 log	<1 log	<1 log	
Cc1cc(NCCCCCCCCCCCCN)nc(-c2ccccn2)n1 [Compound of formula 19]	2–3 log	≦1 log	<1 log	
CCCCCCCCNc1nc(-c2ccccn2)nc(C)c1C(C)C [Compound of formula 69]	1–2 log	<1 log	≦1 log	
COCCc1cc(NCCCCCCCCCN)nc(-c2ccccn2)n1 [Compound of formula 78]	>3 log	≦1 log	<1 log	
CC(C)c1cc(NCCCCCCCCCCCCN)nc(-c2ccccn2)n1 [Compound of formula 43]	3 log	<1 log	<1 log	
CCCCCCCCCCCCNc1cc(C(C)C)nc(-c2ccccn2)n1 [Compound of formula 48]	1 log	<1 log	<1 log	
CCCCCCCCCNc1nc(-c2ccccn2)nc(C)c1CC [Compound of formula 10]	1–2 log	<1 log	<1 log	
CCCCCCCCCCCNc1cc(C(C)C)nc(-c2ccccn2)n1 [Compound of formula 98]	1 log	1–2 log	2–3 log	
CCCCCCCCCCCCCCCNc1cc(C(C)C)nc(-c2ccccn2)n1 [Compound of formula 99]	2 log	≦1 log	<1 log	
CCCCCCCCNc1cc(C(F)(F)F)nc(-c2ccccn2)n1 [Compound of formula 33]	<1 log	<1 log	<1 log	
CCCCCCCCCCNc1nc(-c2ccccn2)nc(C)c1C(C)C [Compound of formula 71]	2 log	<1 log	<1 log	
CC(C)(C)c1cc(NCCCCCCCCCN)nc(-c2ccccn2)n1 [Compound of formula 54]	2–3 log	≦1 log	≦1 log	
CCc1c(C)nc(-c2ccccn2)nc1NCCCCCCCCCCCCN [Compound of formula 7]	2 log	≦1 log	<1 log	
CCCCCCCNc1cc(C(C)C)nc(-c2ccccn2)n1 [Compound of formula 44]	1–2 log	<1 log	<1 log	
CCCCCCCCNc1cc(C(C)C)nc(-c2ccccn2)n1 [Compound of formula 45]	1–2 log	<1 log	<1 log	
CCCCCCCCCCCCNc1nc(-c2ccccn2)nc(C)c1CC [Compound of formula 12]	1–2 log	<1 log	<1 log	
CCCCCCCCCCNc1cc(C)nc(-c2ccccn2)n1 [compound 23]				Minimum inhibitory concentration (MIC) Epidermophyton floccosum DSM 10709 [4]: *15 μg/mL; Minimum inhibitory concentration (MIC) S. epidermidis ATCC 12228 [5]: 7.5 µg/mL (≈ 23 µM); Minimum inhibitory concentration (MIC) Staphylococcus aureus ATCC 9144 [6]: 7.5 µg/mL (≈ 23 µM); Minimum inhibitory concentration (MIC) Trichophyton mentagrophytes ATCC 9533 [7]: 15 µg/mL (≈ 45.9 µM); Minimum inhibitory concentration (MIC) Micrococcus luteus ATCC 9341 [8]: <0.5 µg/mL; Minimum inhibitory concentration (MIC) Enterococcus hirae ATCC 10541 [9]: 3.75 µg/mL (≈ 11.5 µM); Minimum inhibitory concentration (MIC) E. coli ([10]; Table 7, 48 hours at 37° C., MIC = ≦20% growth compared to control): >120 µg/mL; Minimum inhibitory concentration (MIC) E. coli NCTC 8196 ([10]; Table 8, * = significant inhibition of growth, but not complete inhibition): >60 µg/mL; Minimum inhibitory concentration (MIC) S. hominis [11]: 3.75 µg/mL (≈ 11.5 µM)
CCCCCCCCNc1cc(C(C)(C)C)nc(-c2ccccn2)n1 [Compound of formula 57]		<1 log	<1 log	
